Experimental data reported in patent US9669005B2, “Use of naringenin in preparing drugs for preventing and/or treatment abdominal aortic aneurysm” (priority 2013, dated 2017).

Assays:
Format in all cases: in vivo
[1] = tested on: macrophages and leukocytes in adventitia in vascular walls; assay: Immunohistochemical staining of inflammatory cells (Mac3, CD45) in vascular walls, CaPO4 model; conditions: CaPO4 daubed mice, FIG. 3A
From the text: In the onset of abdominal aortic aneurysm, inflammatory cell infiltration of vascular walls is a common feature. We used histochemical staining to identify inflammatory cells infiltrated in vascular walls. Mac3 is the result of immumohistochemical staining on anti-Mac3 specific antibody, representative of macrophage, and CD45 is the result of immumohistochemical staining on anti-CD45 specific antibody, representative of leukocyte.

[2] = tested on: IL-6 and MCP-1; assay: Immunofluorescent staining of IL-6 and MCP-1 in vascular walls, angiotensin II model; conditions: AngII ApoE-/- mice; naringenin gavage; immunofluorescence; FIG. 7C
Experimental: In order to illustrate the mechanism by which naringenin reduces inflammatory reaction of abdominal aorta vascular walls of mice, immunofluorescent staining was performed on IL-6 and MCP-1 by continuous sections to analyze their distributions and expressions in vascular walls.

[3] = tested on: inflammatory cell (macrophage and leukocyte) in adventitia; assay: Immunofluorescent staining of inflammatory cells (Mac3, CD45), angiotensin II model; conditions: AngII ApoE-/- mice; naringenin gavage vs water; FIG. 7A
From the text: CD45 and Mac3 were results of immunofluorescent staining on […].

[4] = tested on: abdominal aortic aneurysms in C57BL/6J mice with CaPO4 daubed infrarenal arteries; assay: Abdominal aortic aneurysm model induced by CaPO4 daubed infrarenal aortas, naringenin or doxycycline gavage; conditions: CaPO4 daubed C57BL/6 mice, daily gavage 7 days
Experimental: 12-week old of male C57BL/6 mice were anesthetized via intraperitoneal injection of 0.1% pentobarbital sodium (injection according to body weight, […]). Infrarenal abdominal aortas were separated, and the separated infrarenal abdominal aortas were packaged by gauze (1 cm in width×3 cm in length) soaked in 0.5 M CaCl2 solution. After 10 minutes, the gauze was removed, gauze soaked in PBS was instead used to package the blood vessel for 5 min. CaCl2+and PO4^−3 in PBS can form CaPO4 crystal, that is, corresponding to daubing CaPO4 to the blood vessel. After packaging the blood vessel with gauze soaked in NaCl for 10 minutes, gauze soaked in PBS is instead used for 5 min, serving as NaCl daubed control group.
(§1) Gavage was started at the first day after surgery, and water, naringenin (50 mg/kg) (Sigma-Aldrich, St. Louis, Mo.) or doxycycline (100 mg/kg) (Sigma-Aldrich, St. Louis, Mo.) gavage were given on mice daily. Materials were removed from the mice 7 days after gavage. Mice were weighed, and blood was drawn from inner canthus by capillary, after centrifuged for 10 minutes at 6000 rotations, the supernatant was removed and blood fat was measured (kit is purchased from BIOSINO company). Then perfusion and washing were performed on mice using PBS. Blood vessels were separated, and four blood vessels were randomly chosen for each group for photographing. The results were shown in FIG. 1, wherein, NaCl was the group of daubing NaCl (n=11), CaPO4 was the group of daubing CaPO4 plus water feed (n=12), CaPO4+NGN was the group of daubing CaPO4 μlus naringenin gavage (n=11), and CaPO4+Dox was the group of daubing CaPO4 μlus doxycycline gavage (n=11).
The blood vessels were sliced, and the change of the diameters in infrarenal abdominal aortas of mice were identified by H.E. staining. […] The data in FIG. 2A were an average value±standard deviation.
The fracture degree of elastic lamina is also an index showing the severity of abdominal aortic aneurysms. The degradation of elastic lamina is divided into four grades. The first grade means that the degradation of elastic lamina is less than 25%, with the second grade of 25%-50%, the third grade of 50%-75%, and the fourth grade means the fracture is more than 75%. We used Gomori staining to identify the fracture situation of elastic lamina of infrarenal abdominal aortas of mice. […] The data in FIG. 2B were an average value±standard deviation.

[5] = tested on: MMP-2 and NMP-9; assay: Gelatin zymography, CaPO4 model; conditions: CaPO4 daubed mice; infrarenal abdominal aorta culture supernatant; FIG. 4B
Experimental: After extravasated blood in fresh removed blood vessels of infrarenal site in abdominal aortas of mice were cleared, and fat and connective tissues were removed, and blood vessels were cut into 1 cm ring, and put into 24-well plate. Blood vessels were cultured for 24 hours using 0.5 ml serum-free medium with high glucose. After the cultured supernatant protein was quantified, mercaptoethanol-free protein sample loading buffer was added, cryopreserved at −80° C. Water was used to prepare gelatin (Sigma-Aldrich, St. Louis, Mo.) into a concentration of 10 mg/ml, which was added to separation gel of protein electrophoresis according to the proportion of 1:10, causing the final concentration of gelatin as 1 mg/ml. Electrophoresis was performed in a voltage of 80V at 4° C. The gel was put into 0.25% Trixon-100 solution, and washing was performed twice in 30 minutes. […] Incubated gel was put into Coomassie brilliant blue to stain for 1-2 hours at room temperature, washed for 30 minutes with a solution having 30% methanol and 10% glacial acetic acid, a solution having 20% methanol and 10% glacial acetic acid, and a solution having 10% methanol and 5% glacial acetic acid, respectively, and then analyzed with Odyssey infrared fluorescence scanning system (LI-COR Biosciences, Lincoln, Nebr.). […]

[6] = Body weight and blood fat of CaPO4 treated C57BL/6J mice
Experimental: as §1

[7] = tested on: formed arterial aneurysms in CaPO4 daubed C57 mice; assay: Formed abdominal aortic aneurysms, CaPO4 model, naringenin gavage from 7 days after daubing
Experimental: In CaPO4 model, we daubed CaPO4 at infrarenal abdominal aortas in 12-week old of male C57 mice (totally 36 mice), and arterial aneurysms were formed 7 days later. Next, the 36 mice were randomly divided into 2 groups: one group was given naringenin (50 mg/kg/day) gavage, and another group was given equal water gavage. Gavage was performed for 2 weeks (8 mice for each group) and 4 weeks (10 mice for each group), respectively.

[8] = CaPO4 treated C57BL/6J mice, gavage 7 days, naringenin 50 mg/kg, doxycycline 100 mg/kg

Structure (SMILES): O=C1C[C@@H](c2ccc(O)cc2)Oc2cc(O)cc(O)c21 [naringenin]
- infiltration of macrophages and leukocytes in adventitia in vascular walls [1]: reduce such effect
- production of IL-6 and MCP-1 in vascular walls [2]: significantly decreases
- infiltration of inflammatory cell (macrophage and leukocyte) in adventitia [3]: significantly reduce
- fracture of elastic lamina of infrarenal abdominal aortas (Gomori staining) ([4]; FIG. 2B): reverse the effect of CaPO4
- diameters of infrarenal abdominal aortas (H.E. staining) ([4]; naringenin 50 mg/kg, doxycycline 100 mg/kg, average ± SD, CaPO4 + water 1.40±0.19, NaCl 0.77±0.06): 1.03±0.18 mm
- incidence rate and degree of bulge of blood vessels at infrarenal site ([4]; naringenin 50 mg/kg, doxycycline 100 mg/kg, vascular photos FIG. 1): reduce the incidence rate and degree of bulge
- MMP-2 and NMP-9 (gelatin zymography) [5]: reverse the increase of MMP-2 and NMP-9 caused by CaPO4 daubing
- body weights and blood fat levels ([6]; C57BL/6J mice, naringenin gavage 50 mg/kg, 7 days): does not affect
- Body weight [6, 8]: 20.1 ± 1.41 g
- Cholesterol [6, 8]: 3.53 ± 0.45 mmol
- Triglyceride [6, 8]: 0.97 ± 0.22 mmol
- average diameter of infrarenal abdominal aortas (ex vivo) ([7]; aneurysms formed 7 days after CaPO4, naringenin 50 mg/kg/day gavage 2 weeks, control 1.488±0.42, P<0.05): 0.884±0.33 mm
- average diameter of infrarenal abdominal aortas (ex vivo) ([7]; aneurysms formed 7 days after CaPO4, naringenin 50 mg/kg/day gavage 4 weeks, control 1.718±0.64, P<0.05): 0.9935±0.5 mm
